Here are results for five compounds from patent publication US7767645B2, “SH2 domain binding inhibitors” (The United States of America as represented by the …, priority 2003, dated 2010).

The structures appear in SMILES notation.

For assay [1], the target named is T1, Grb2 SH2 domain protein (b-Grb2) (Homo sapiens, UniProt P62993).
T1 construct: All Biotinylated Grb2 SH2 domain protein (b-Grb2) was expressed and purified; biotin (biotinylated)
In words: Surface Plasmon Resonance (SPR) determination of Grb2 SH2 domain-binding Kd values. The conditions noted are these: BIACORE S51, immobilized biotinylated Grb2 SH2 domain, 25° C., PBS pH 7.4. How it is done: Binding affinities were determined as follows. Surface Plasmon Resonance (SPR) Determination of Grb2 SH2 Domain-Binding Kd Values. Binding experiments were performed on a BIACORE S51 instrument (Biacore Inc., Piscataway N.J.). All Biotinylated Grb2 SH2 domain protein (b-Grb2) was expressed and purified (Protein Expression Laboratory and The Protein Chemistry Laboratory, SAIC—Frederick). The b-Grb2 was immobilized onto carboxymethyl 5′ dextran surface (CM5 sensor chip, Biacore Inc.) by amine coupling. The lyophilized b-Grb2 was reconstituted in fifty percent DMSO in H2O to make a stock solution of 1 mg/mL and stored at −80° C. A 1:12.5 dilution of b-Grb2 was used for immobilization and prepared by dilution in acetate buffer pH-5.0, with 5% DMSO. 1×PBS (phosphate buffered saline, pH 7.4) was used as the running buffer.
An immobilization wizard was used to facilitate immobilization targeting. For b-Grb2, 2500-5000 resonance units (RU) of protein were captured on the CM5 sensor chip. Small molecule ligands were serially diluted in running buffer to concentrations of 1.25 nM-1500 nM, as described in each sensorgram and injected at 25° C. at a flow rate of 30 μl/min for 1 minute and dissociation was monitored for an additional 3 minutes. Surface regeneration was not used. Samples of differing concentrations of small molecule ligands were injected in increasing concentration, with every injection being performed in duplicate within each experiment. In order to subtract background noise from each data set, all samples were also run over an unmodified reference surface and injections of running buffer were performed throughout every experiment (“double referencing”). Up to six data sets were fit to a simple 1:1 interaction model or to a surface heterogeneity model (“complex model”) for compound 41, using the global data analysis program CLAMP. Myszka, D. G.; Morton, T. A.; CLAMP: A biosensor kinetic data analysis program. Trends Biochem. Sci. 1998, 23, 149-150. The mean of the ratio and associated error were calculated according to known procedures. van Kempen, G. M.; van Vliet, L. J.; Mean and variance of ratio estimators used in fluorescence ratio imaging. Cytometry 2000, 39, 300-305.

Assay [2] has as its target T2, Grb2 SH2 domain-MBP fusion protein (Homo sapiens, UniProt P62993).
T2 construct: is added biotinylated Grb2 SH2 domain-MBP fusion protein; biotin (biotinylated)
Kind of assay: ELISA-based determination of Grb2 SH2 domain-binding IC50 values. The following applies: competition with HRP-SA-biotinylated-phosphopeptide complex. How it is done:
ELISA-Based Determination of Grb2 SH2 Domain-Binding IC50 Values. To multiwell plates pre-coated with streptavidin (SA) is added biotinylated Grb2 SH2 domain-MBP fusion protein. SH2 domain-fusion protein binds to the SA on the plate and unbound protein is then washed away and the plate is blocked using the commercial ELISA blocking agent, I-Block that contains detergent and casein (a milk protein). This blocking agent prevents subsequently-added constituents from sticking to the plastic well non-specifically. To the wells is then added horseradish peroxidase-(HRP)-SA-biotinylated-phosphopeptide as a pre-formed complex (termed “Complex”). [NOTE: The HRP-SA-biotinylated phosphopeptide complex is prepared ahead of time by combining a vast molar excess of SA-HRP with the biotinylated phosphopeptide to assure that all of the biotin sites are bound to SA-HRP before they are added to the well. This prevents those biotin sites from sticking to the SA coating on the plate, which would generate a signal even in the absence of biotinylated Grb2 SH2 domain-MBP fusion protein.] This complex binds to the Grb2 SH2 domain via the phosphopeptide. Unbound Complex is washed away before adding HRP substrate (OPD) to generate a color that is measured spectrophotometrically. Synthetic SH2 domain binding antagonists, at various concentrations, are added to wells in the presence of Complex to compete for HRP-SA-biotinylated-phosphopeptide binding to Grb2 SH2 domain protein. The intensity of the resulting color for each well as a function of the concentration of synthetic inhibitor added is recorded.
For orientation: ELISA stands for enzyme-linked immunosorbent assay.

T1 sequence (P62993 60-152 limits assumed): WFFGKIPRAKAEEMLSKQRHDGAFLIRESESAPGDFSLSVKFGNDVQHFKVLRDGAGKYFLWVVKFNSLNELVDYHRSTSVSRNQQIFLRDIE
T2 sequence (P62993 60-152 limits assumed): as above

Consider `Cc1ccc2c(ccn2CC2CC=CC(c3ccc(NC(=O)C(=O)O)cc3)C(CC(=O)O)C(=O)NC3(CCCCC3)C(=O)NC(CC(N)=O)C(=O)NC2)c1` (centres unmarked) [Compound 28], for which, in assay [1], the Kd (usually a measure of binding affinity in units of concentration) was 67 nM. Moreover, the IC50 (in general, the concentration at which inhibition is half-maximal) in assay [2] worked out at 8.8 nM. Turning to `Cc1ccc2c(ccn2CC2CC=CC(c3ccc(CP(=O)(O)O)cc3)C(CC(=O)O)C(=O)NC3(CCCCC3)C(=O)NC(CC(N)=O)C(=O)NC2)c1` (centres unmarked) [Compound 6], in assay [1], the Kd came to 1.67 nM. Compound `Cc1ccc2c(ccn2CC2CC=CC(c3ccc(C(C(=O)O)C(=O)O)cc3)C(CC(=O)O)C(=O)NC3(CCCCC3)C(=O)NC(CC(N)=O)C(=O)NC2)c1` (centres unmarked) [Compound 32] gave a Kd in assay [1] of 3.62 nM. Moreover, the IC50 in assay [2] came to 3.3 nM.

In assay [1], `Cc1ccc2c(ccn2CC2CC=CC(c3ccc(CP(=O)(O)Cc4ccccc4)cc3)C(CC(=O)O)C(=O)NC3(CCCCC3)C(=O)NC(CC(N)=O)C(=O)NC2)c1` (centres unmarked) [Compound 41] had a Kd of 35.3 nM. In assay [2], this compound yielded an IC50 of 8.4 nM.

In assay [2], `Cc1ccc2c(ccn2CC2CC=CC(c3ccc(CC(=O)O)cc3)C(CC(=O)O)C(=O)NC3(CCCCC3)C(=O)NC(CC(N)=O)C(=O)NC2)c1` (centres unmarked) [Compound 33] had an IC50 of 22.5 nM.
